Drawing on PubChem BioAssay AID1259411 (Chemical Carcinogenesis Research Information System (CCRIS), 2018), this text covers carcinogen call for 5 compounds.

Calls of active or inactive are those of the source. The rule behind the calls is not given here.

This data set relates to rodent carcinogenicity bioassays, tumor incidence. The data set is described as follows: CCRIS carcinogenicity studies. The method, boiled down:
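NCI-built, expert-reviewed records of carcinogenicity and related test outcomes (mutagenicity, tumor promotion/inhibition) compiled from published and report sources, historical span 1985-2011, not updated.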

`CCN(N=O)C(=O)NC`: the carcinogen call (Species: RAT, Strain/Sex: F344/FEMALE, Route: GAVAGE, Dose: 0, 20, 40 UMOL/WK IN CORN OIL/ETHYL ACETATE (2: 1) FOR 30 WK FOR TOTAL DOSES OF 0, 0.6, 1.2 MMOL (STUDY DURATION: LIFETI, Dose: 0, 20, 40 UMOL/WK IN CORN OIL/ETHYL ACETATE (2: 1) FOR 30 WK FOR TOTAL DOSES OF 0, 0.6, 1.2 MMOL (STUDY DURATION: LIFETI, Tumor Site: Type of Lesion: MAMMARY GLAND: TUMOR, UTERUS: TUMOR) was “active; positive”; the carcinogen call (Species: RAT, Strain/Sex: F344/FEMALE, Route: ORAL, Dose: 0, 20, 40 UMOL/WK IN DRINKING WATER FOR 30 WK FOR TOTAL DOSES OF 0, 0.6, 1.2 MMOL (STUDY DURATION: LIFETIME), Dose: 0, 20, 40 UMOL/WK IN DRINKING WATER FOR 30 WK FOR TOTAL DOSES OF 0, 0.6, 1.2 MMOL (STUDY DURATION: LIFETIME), Tumor Site: Type of Lesion: LUNG: TUMOR, MAMMARY GLAND: TUMOR, UTERUS: TUMOR, THYROID: FOLLICULAR CELL TUMOR, NERVOUS SYSTEM: TUMOR, Tumor Site: Type of Lesion: LUNG: TUMOR, MAMMARY GLAND: TUMOR, UTERUS: TUMOR, THYROID: FOLLICULAR CELL TUMOR, NERVOUS SYSTEM: TUMOR) was “active; positive”; the carcinogen call (Species: RAT, Strain/Sex: F344/MALE, Route: GAVAGE, Dose: 0, 20, 40 UMOL/WK IN CORN OIL/ETHYL ACETATE (2: 1) FOR 30 WK FOR TOTAL DOSES OF 0, 0.6, 1.2 MMOL (STUDY DURATION: LIFETI, Dose: 0, 20, 40 UMOL/WK IN CORN OIL/ETHYL ACETATE (2: 1) FOR 30 WK FOR TOTAL DOSES OF 0, 0.6, 1.2 MMOL (STUDY DURATION: LIFETI, Tumor Site: Type of Lesion: LUNG: TUMOR, TESTIS: MESOTHELIOMA, ZYMBAL GLAND: TUMOR, Tumor Site: Type of Lesion: LUNG: TUMOR, TESTIS: MESOTHELIOMA, ZYMBAL GLAND: TUMOR) is “active; positive”; the carcinogen call (Species: RAT, Strain/Sex: F344/MALE, Route: ORAL, Dose: 0, 20, 40 UMOL/WK IN DRINKING WATER FOR 30 WK FOR TOTAL DOSES OF 0, 0.6, 1.2 MMOL (STUDY DURATION: LIFETIME), Dose: 0, 20, 40 UMOL/WK IN DRINKING WATER FOR 30 WK FOR TOTAL DOSES OF 0, 0.6, 1.2 MMOL (STUDY DURATION: LIFETIME), Tumor Site: Type of Lesion: LUNG: TUMOR, THYROID: FOLLICULAR CELL TUMOR, TESTIS: MESOTHELIOMA, NERVOUS SYSTEM: TUMOR, ZYMBAL GLAND: TUMOR, COLON: TU, Tumor Site: Type of Lesion: LUNG: TUMOR, THYROID: FOLLICULAR CELL TUMOR, TESTIS: MESOTHELIOMA, NERVOUS SYSTEM: TUMOR, ZYMBAL GLAND: TUMOR, COLON: TU) was “active; positive”.

As to `C[C@H]([C@H](O)CCC(C)(C)O)[C@H]1CC[C@@]2(O)C3=CC(=O)[C@@H]4C[C@@H](O)[C@@H](O)C[C@]4(C)[C@H]3CC[C@]12C`, the carcinogen call reads like this: (Species: MOUSE, Strain/Sex: SWISS/FEMALE, Route: ORAL, Dose: 0, 3 PPM/25 G BW IN DIET FOR 22 MO (STUDY DURATION: 22 MO), Tumor Site: Type of Lesion: MAMMARY GLAND: TUMOR, LUNG: TUMOR) “active; positive”; (Species: MOUSE, Strain/Sex: SWISS/MALE, Route: ORAL, Dose: 0, 3 PPM/25 G BW IN DIET FOR 22 MO (STUDY DURATION: 22 MO), Tumor Site: Type of Lesion: LUNG: TUMOR) “active; positive”.

As to `OCCN(CCO)CCO`, the carcinogen call is “active; positive” (Species: MOUSE, Route: ORAL, Tumor Site: Type of Lesion: LYMPHATIC SYSTEM); “active; positive” (Species: MOUSE, Strain/Sex: B6C3F1/FEMALE, Route: DERMAL, Dose: 0, 100, 300, 1000 MG/KG 5 D/WK FOR 104 -105 WKS (STUDY DURATION: 105 WKS), Dose: 0, 100, 300, 1000 MG/KG 5 D/WK FOR 104 -105 WKS (STUDY DURATION: 105 WKS), Tumor Site: Type of Lesion: LIVER: HEPATOCELLULAR ADENOMA OR CARCINOMA); “inactive; negative” (Species: MOUSE, Strain/Sex: B6C3F1/FEMALE, Route: ORAL, Dose: 0, 1, 2% IN DRINKING WATER FOR 82 WK (STUDY DURATION: 82 WK), Dose: 0, 1, 2% IN DRINKING WATER FOR 82 WK (STUDY DURATION: 82 WK)); “equivocal; p=0.047 at median dose for hemangiosarcoma” (Species: MOUSE, Strain/Sex: B6C3F1/MALE, Route: DERMAL, Dose: 0, 200, 630, 2000 MG/KG 5D/WK FOR 104 WKS (STUDY DURATION: 104 WKS), Dose: 0, 200, 630, 2000 MG/KG 5D/WK FOR 104 WKS (STUDY DURATION: 104 WKS), Tumor Site: Type of Lesion: LIVER: HEMANGIOSARCOMA AT MEDIAN DOSE LEVEL); “inactive; negative” (Species: MOUSE, Strain/Sex: B6C3F1/MALE, Route: ORAL, Dose: 0, 1, 2% IN DRINKING WATER FOR 82 WK (STUDY DURATION: 82 WK), Dose: 0, 1, 2% IN DRINKING WATER FOR 82 WK (STUDY DURATION: 82 WK)); “inactive; negative” (Species: RAT, Strain/Sex: F344/FEMALE, Route: DERMAL, Dose: 0, 32, 63, 125 MG/KG 5 D/WK FOR 103 WK (STUDY DURATION: 103 WK), Dose: 0, 32, 63, 125 MG/KG 5 D/WK FOR 103 WK (STUDY DURATION: 103 WK)). Further, the carcinogen call (Species: RAT, Strain/Sex: F344/MALE, Route: DERMAL, Dose: 0, 32, 63, 125 MG/KG 5 D/WK FOR 103 WK (STUDY DURATION: 103 WK), Dose: 0, 32, 63, 125 MG/KG 5 D/WK FOR 103 WK (STUDY DURATION: 103 WK), Tumor Site: Type of Lesion: KIDNEY: RENAL TUBULE ADENOMA) is “equivocal”.

Regarding `CC1CN(N=O)CO1` (centres undefined), the carcinogen call runs as follows: (Species: HAMSTER, Strain/Sex: SYRIAN/MALE, Route: INTRAGASTRIC, Dose: 0, 25 MG/ML IN 0.2 ML STERILIZED WATER 1/WK FOR 24 WK (TOTAL DOSE 120 MG) (STUDY DURATION: LIFESPAN), Tumor Site: Type of Lesion: LIVER: HEPATOCELLULAR CARCINOMA, ADENOMA, HEMANGIOSARCOMA, CHOLANGIOCARCINOMA, PANCREAS: DUCTAL CARCINOMA) “active; positive”; (Species: RAT, Strain/Sex: F344/FEMALE, Route: ORAL, Dose: 40 MG/L IN DRINKING WATER FOR 50 WK, Tumor Site: Type of Lesion: LIVER: HEPATOCELLULAR CARCINOMA, HEMANGIOENDOTHELIAL SARCOMA) “active; positive”.

Take `CC(O)CCl` (centres undefined): the carcinogen call (Species: MOUSE, Strain/Sex: B6C3F1/FEMALE, Route: ORAL, Dose: 0, 250, 500, 1000 PPM IN DRINKING WATER FOR DURATION OF STUDY (STUDY DURATION: 2 YR), Dose: 0, 250, 500, 1000 PPM IN DRINKING WATER FOR DURATION OF STUDY (STUDY DURATION: 2 YR)) was “inactive; negative”; the carcinogen call (Species: MOUSE, Strain/Sex: B6C3F1/MALE, Route: ORAL, Dose: 0, 250, 500, 1000 PPM IN DRINKING WATER FOR DURATION OF STUDY (STUDY DURATION: 2 YR), Dose: 0, 250, 500, 1000 PPM IN DRINKING WATER FOR DURATION OF STUDY (STUDY DURATION: 2 YR)) is “inactive; negative”; the carcinogen call (Species: RAT, Strain/Sex: F344/FEMALE, Route: ORAL, Dose: 10, 150, 325, 650 PPM IN DRINKING WATER FOR DURATION OF STUDY (STUDY DURATION: 2 YR), Dose: 10, 150, 325, 650 PPM IN DRINKING WATER FOR DURATION OF STUDY (STUDY DURATION: 2 YR)) was “inactive; negative”; the carcinogen call (Species: RAT, Strain/Sex: F344/MALE, Route: ORAL, Dose: 0, 150, 325, 650 PPM IN DRINKING WATER FOR DURATION OF STUDY (STUDY DURATION: 2 YR), Dose: 0, 150, 325, 650 PPM IN DRINKING WATER FOR DURATION OF STUDY (STUDY DURATION: 2 YR)) was “inactive; negative”.
